Assay results reported in patent US20160280651A1, “COMPOUNDS THAT INDUCE ABA RESPONSES” (THE REGENTS OF THE UNIVERSITY OF CALIFORNIA, priority 2013, published 2016).

How the values were obtained:
[1] = system: detached leaves of crop species; test: Water loss analyses in diverse species; format: in vivo, soybean, barley, maize and other species; conditions: over a period of 2 hours
Experimental: FIG. 13A-FIG. 13E. LC66C6 modulates ABA responses in diverse species. Germination inhibition (A) and transpirational water loss in detached leaves 2-hours after detachment (B) in response to compounds shown. The expression of ABA-responsive marker genes in Soybean (C), Barley (D) and Maize (E) after application of chemicals. D, P, L and A indicate DMSO, pyrabactin, LC66C6 and (+)-ABA, respectively.
For water loss analyses using soybean barley and maize, 100 μM chemical solution containing 0.05% Tween-20 was sprayed on to the aerial parts of the plants. The soybean, barley and maize plants used were approximately 4-, 2- and 2-weeks old respectively. Compounds were applied 16 hours before water loss assays were conduction. To measure water loss entire shoots were detached and their fresh weight monitored.

[2] = system: PYR/PYL receptors and the PP2C HAB1; test: Yeast two-hybrid agonist assay (screens and receptor sensitivity); format: cell-based, Arabidopsis; conditions: 5 μM of test chemicals
Experimental: FIG. 1A-FIG. 1B. Novel ABA agonists bind to multiple PYR/PYL. (A) Chemical structure of naturally occurring (+)-ABA, its (−)analog and selected ABA agonists. (B) Yeast two-hybrid agonist assays of PYR/PYL receptor sensitivity to 5 μM of test chemicals. Specific PYR/PYL Receptors and the PP2C HAB1 are expressed as Ga14 BD or AD fusion proteins respectively, as described in the text.
A previously described yeast two-hybrid system was used in high throughput screens (HTS) to identify ABA agonists (see, Peterson F C, et al. (2010) Structural basis for selective activation of ABA receptors. Nature Structural & Molecular Biology 17(9):1109-1111). In this system the agonist promoted receptor-PP2C interaction drives expression of a URA3 or HIS3 reporter gene and rescues uracil or histidine auxotrophy of parental strains (Peterson F C, et al. (2010); Vidal M, Brachmann R K, Fattaey A, Harlow E, & Boeke J D (1996) Reverse two-hybrid and one-hybrid systems to detect dissociation of protein-protein and DNA-protein interactions. Proceedings of the National Academy of Sciences of the United States of America 93(19):10315-10320). […]

Chlamydomonas = test: Colony growth of Chlamydomonas with and without salinity and osmotic stress; format: in vivo
Experimental: FIG. 17A-FIG. 17D. The effect of ABA and its agonists in Physcomitrella patens and Chlamydomonas. Protonemal growth images (A) and quantitative analysis (B) of the effects of ABA and agonists on Phsycomitrella patens. Protonema were grown on 200 μM of specific test chemical for 10 days. […] Pyrabactin bleached protonema. (C) The expression of ABA-responsive genes of Physcomitrella patens. Protonema were treated with 200 μM chemical solutions for 3 h. (D) Colony growth of Chlamydomonas on the chemical with salinity stress and osmotic stress. There was no effect of ABA and LC66C6 on the Chlamydomonas growth with and without stresses.

SMILES	Transpirational water loss in detached leaves of diverse species [1]	Agonist activity and receptor selectivity in yeast two-hybrid assay [2]	Growth of Chlamydomonas (Chlamydomonas)
CCCN1C(=O)CCc2cc(NS(=O)(=O)Cc3ccc(C)cc3)ccc21 [LC66C6]	reduces transpirational water loss	agonist of multiple PYR/PYL receptors	no effect
O=S(=O)(NCc1ccccn1)c1ccc(Br)c2ccccc12 [pyrabactin, reference compound]	–	much greater receptor selectivity than ABA or the new agonist LC66C6	bleached the Chlamydomonas
